Assay results as given in the supplement of paper PMC11451515.

Assays:
Assay in all cases: AUC of viability dose-response curve (% viability x log10 dose units); higher = less sensitive
Details in all cases: 48 h
NOMO1 = test system: NOMO1
Method in brief: (§1)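 Leukemia cells adapted to each medium (500 or 1000 cells/well, 1536-well plates) were exposed to library compounds in DMSO for 48 h at 37°C at 11 threefold doses, 47 μM to 0.79 nM. Luminescence by CellTiter-Glo One was normalised per plate to DMSO and cell-free wells, then fitted with a four-parameter log-logistic curve on log10 dose. Curves above full viability were scaled and quality-control failures removed before area under the curve was integrated by trapezoidal rule.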

P12-Ichikawa = test system: P12-Ichikawa
Method in brief: as §1

SEM cells = test system: SEM cells
Method in brief: as §1

[1] = RPMI 5 mM glucose + 10% dialyzed FBS

| SMILES | AUC of viability dose-response curve (NOMO1; HPLM + 10% dialyzed FBS) | AUC of viability dose-response curve (NOMO1; RPMI 5 mM glucose + 10% FBS) | AUC of viability dose-response curve (NOMO1; [1]) | AUC of viability dose-response curve (P12-Ichikawa; HPLM + 10% dialyzed FBS) | AUC of viability dose-response curve (P12-Ichikawa; RPMI 5 mM glucose + 10% FBS) | AUC of viability dose-response curve (P12-Ichikawa; [1]) | AUC of viability dose-response curve (SEM cells; HPLM + 10% dialyzed FBS) | AUC of viability dose-response curve (SEM cells; RPMI 5 mM glucose + 10% FBS) | AUC of viability dose-response curve (SEM cells; [1]) |
| --- | --- | --- | --- | --- | --- | --- | --- | --- | --- |
| N#CC1(c2cccc(C(=O)Nc3cc(Oc4ccc5nc(NC(=O)C6CC6)sc5n4)ccc3F)c2Cl)CC1 | 344 | 370 | 327 | 372 | 362 | 369 |  |  |  |
| NC(=O)N1CCC(CC(=O)N2CCC([C@H]3c4ncc(Br)cc4CCc4cc(Cl)cc(Br)c43)CC2)CC1 | 442 | 439 | 432 | 413 | 395 | 410 | 363 | 355 | 395 |
| Cc1cccc(-c2[nH]c(C(C)(C)C)nc2-c2ccc3nccnc3c2)n1 | 460 | 430 | 455 | 459 | 458 | 424 | 444 | 383 | 443 |
| CC(C)[C@H](O)C(=O)N[C@@H](C)C(=O)N[C@@H]1C(=O)N(C)CCc2ccccc21 | 444 | 472 | 460 | 447 | 450 | 423 | 431 | 441 | 393 |
| CCCCCN(C)CCC(O)(P(=O)([O-])O)P(=O)(O)O | 421 | 439 | 423 | 447 | 426 | 409 | 357 | 384 | 367 |
| CC1=CC/2=C(C=C1C)N(C[C@@H](O)[C@@H](O)[C@@H](O)CO)C/3=N/C(=O)NC(=O)C3=N2 | 462 | 472 | 460 | 458 | 449 | 451 | 474 | 428 | 474 |
| Cc1noc(N[S+](=O)([O-])c2ccc(N)cc2)c1C | 464 | 457 | 426 | 460 | 468 | 463 | 448 | 457 | 456 |
| OC1=C(Cl)C=C(N\C2=C(\C(=O)NC2=O)C3=C(C=CC=C3)[N+]([O-])=O)C=C1 | 400 | 431 | 427 | 457 | 456 | 459 | 419 | 426 | 434 |
| NC(=O)c1nnn(Cc2cc(Cl)c(C(=O)c3ccc(Cl)cc3)c(Cl)c2)c1N | 465 | 455 | 470 | 463 | 465 | 464 | 471 | 462 | 464 |
| COCCCC/C(=N\OCCN)c1ccc(C(F)(F)F)cc1 | 358 | 369 | 369 | 400 | 371 | 373 | 389 | 398 | 462 |
| CCCC[S+](=N)([O-])CCC(N)C(=O)O (stereo not drawn) | 441 | 462 | 461 | 453 | 469 | 465 | 459 | 462 | 458 |
| Nc1nccc(-c2ccc3noc(-c4ccc(Cl)cc4)c3c2)n1 | 449 | 464 | 469 | 468 | 466 | 470 | 425 | 457 | 462 |
| CCn1c(C(=O)N(C2CC2)C2CC2)cc2c3c(ncn3C)c(Nc3cc(C)n(C)n3)nc21 | 472 | 473 | 464 | 466 | 473 | 467 | 454 | 446 | 435 |
| CCN(CC)CCCC(C)Nc1ccnc2cc(Cl)ccc12 (stereo not drawn) | 382 | 416 | 416 | 416 | 416 | 418 | 477 | 468 | 468 |
| CC(=O)OCC(=O)[C@@]1(O)CC[C@H]2[C@@H]3CCC/4=C/C(=O)/C=C\[C@]4(C)[C@H]3[C@@H](O)C[C@]12C | 439 | 450 | 472 |  |  |  | 383 | 425 | 428 |
| COc1ccc(/C=C/C(=O)Nc2ccccc2C(=O)O)cc1OC | 434 | 455 | 463 | 453 | 458 | 450 | 446 | 438 | 448 |
